Measurements as given in patent US20230031406A1, “COMPOUNDS AND COMPOSITIONS FOR TREATING CONDITIONS ASSOCIATED WITH NLRP ACTIVITY” (Novartis AG, priority 2018, published 2023).

These compounds were tested on PMA-differentiated THP-1 cells (assay: IL-1β production in PMA-differentiated THP-1 cells stimulated with gramicidin (hTHP-1 assay containing 2% fetal bovine serum; Procedures 1 and 2)). Conditions: Homo sapiens, THP-1, Table B2; 2% fetal bovine serum; class symbols; read-out: hTHP-1 IC50.
Format: cell-based, human
Outline: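 THP-1 cells were differentiated with PMA (20 ng/ml, 16-18 h), detached, and plated at 50,000 cells/well in RPMI 1640 with 2% FBS. They were pre-treated with compound (0.0017–100 μM, 0.37% DMSO) for 1 h, then stimulated with gramicidin (5 μM) for 2 h. Supernatant IL-1β was measured by HTRF.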
`Cc1c(C(F)F)nc2c(c1NC(=O)N=S(N)(=O)c1cnc(C(C)(C)O)s1)CCC2` (stereo not drawn) [Compound 647, N′-((2-(difluoromethyl)-3-methyl-6,7-dihydro-5H-cyclopenta[b]pyridin-4-yl)carbamoyl)-2-(2-hydroxypropan-2-yl)thiazole-5-sulfonimidamide] showed an IC50 of 1 to 5 µM.
`COC(C)(C)c1nc(CO)c(S(N)(=O)=NC(=O)Nc2c3c(nc4c2CCC4(C)C)CCC3)s1` (stereo not drawn) [Compound 648, N′-((3,3-dimethyl-1,2,3,5,6,7-hexahydrodicyclopenta[b,e]pyridin-8-yl)carbamoyl)-4-(hydroxymethyl)-2-(2-methoxypropan-2-yl)thiazole-5-sulfonimidamide] was tested, and the IC50 was 1 to 5 µM.
With `Cc1c(C2CCC2)nc2c(c1NC(=O)N=S(N)(=O)c1cnc(C(C)(C)O)s1)CCC2` (stereo not drawn) [Compound 649, N′-((2-cyclobutyl-3-methyl-6,7-dihydo-5H-cyclopenta[b]pyridin-4-yl)carbamoyl)-2-(2-hydroxypropan-2-yl)thiazole-5-sulfonimidamide] the IC50 was 5 to 30 µM.
Work on `Cc1c(C(C)C)nc2c(c1NC(=O)N=S(N)(=O)c1cnc(C(C)(C)O)s1)CCC2` (stereo not drawn) [Compound 650, 2-(2-Hydroxypropan-2-yl)-N′-((2-isopropyl-3-methyl-6,7-dihydro-5H-cyclopenta[b]pyridin-4-yl)carbamoyl)thiazole-5-sulfonimidamide] yielded an IC50 of 0.2 to 1 µM.
Work on `Cc1c(C2CC2)nc2c(c1NC(=O)N=S(N)(=O)c1cc(C(C)(C)O)n(-c3ccccc3)n1)CCC2` (stereo not drawn) [Compound 651, N′-((2-cyclopropyl-3-methyl-6,7-dihydro-5H-cyclopenta[b]pyridin-4-yl)carbamoyl)-5-(2-hydroxypropan-2-yl)-1-phenyl-1H-pyrazole-3-sulfonimidamide] yielded an IC50 of 5 to 30 µM.
Work on `CC(C)n1nc(S(N)(=O)=NC(=O)Nc2c3c(nc4c2CCC4(C)C)CCC3)cc1CO` (stereo not drawn) [Compound 652, N′-((3,3-dimethyl-1,2,3,5,6,7-hexahydrodicyclopenta[b,e]pyridin-8-yl)carbamoyl)-5-(hydroxymethyl)-1-isopropyl-1H-pyrazole-3-sulfonimidamide] yielded an IC50 of 1 to 5 µM.
`CCc1nc2c(c(NC(=O)N=S(N)(=O)c3cc(C(C)(C)O)cs3)c1C1CC1)CCC2` (stereo not drawn) [Compound 654, N′-((3-cyclopropyl-2-ethyl-6,7-dihydro-5H-cyclopenta[b]pyridin-4-yl)carbamoyl)-4-(2-hydroxypropan-2-yl)thiophene-2-sulfonimidamide] gave an IC50 of 0.2 to 1 µM.
With `Cc1c(CC2CC2)nc2c(c1NC(=O)N=S(N)(=O)c1cc(C(C)(C)O)cs1)CCC2` (stereo not drawn) [Compound 655, N′-((2-(cyclopropylmethyl)-3-methyl-6,7-dihydro-5H-cyclopenta[b]pyridin-4-yl)carbamoyl)-4-(2-hydroxypropan-2-yl)thiophene-2-sulfonimidamide] the IC50 was 5 to 30 µM.
For `Cc1c(C(C)(C)C)nc2c(c1NC(=O)N=S(N)(=O)c1cc(C(C)(C)O)cs1)CCC2` (stereo not drawn) [Compound 657, N′-((2-(tert-butyl)-3-methyl-6,7-dihydro-5H-cyclopenta[b]pyridin-4-yl)carbamoyl)-4-(2-hydroxypropan-2-yl)thiophene-2-sulfonimidamide], the IC50 was 5 to 30 µM.
`Cc1c(C2CCC2)nc2c(c1NC(=O)N=S(N)(=O)c1cc(C(C)(C)O)cs1)CCC2` (stereo not drawn) [Compound 658, N′-((2-cyclobutyl-3-methyl-6,7-dihydro-5H-cyclopenta[b]pyridin-4-yl)carbamoyl)-4-(2-hydroxypropan-2-yl)thiophene-2-sulfonimidamide] gave an IC50 of 5 to 30 µM.
`CC1(C)CCc2c1nc1c(c2NC(=O)N=S(N)(=O)c2ccn(-c3ccccc3)n2)CCC1` (stereo not drawn) [Compound 659, N′-((3,3-dimethyl-1,2,3,5,6,7-hexahydrodicyclopenta[b,e]pyridin-8-yl)carbamoyl)-1-phenyl-1H-pyrazole-3-sulfonimidamide] showed an IC50 of 1 to 5 µM.
`Cc1c(C(F)(F)F)nc2c(c1NC(=O)N=S(N)(=O)c1cnc(C(C)(C)O)s1)CCC2` (stereo not drawn) [Compound 661, 2-(2-Hydroxypropan-2-yl)-N′-((3-methyl-2-(trifluoromethyl)-6,7-dihydro-5H-cyclopenta[b]pyridin-4-yl)carbamoyl)thiazole-5-sulfonimidamide] showed an IC50 of 1 to 5 µM.
Compound `CC(C)(O)c1cc(S(N)(=O)=NC(=O)Nc2c3c(nc4c2CCC4(C)C)CCC3)nn1-c1ccccc1` (stereo not drawn) [Compound 663, N′-((3,3-dimethyl-1,2,3,5,6,7-hexahydrodicyclopenta[b,e]pyridin-8-yl)carbamoyl)-5-(2-hydroxypropan-2-yl)-1-phenyl-1H-pyrazole-3-sulfonimidamide] has an IC50 of 1 to 5 µM.
For `CC(C)c1c(C2CC2)nc2c(c1NC(=O)N=S(N)(=O)c1cc(C(C)(C)O)cs1)CCC2` (stereo not drawn) [Compound 667, N′-((2-cyclopropyl-3-isopropyl-6,7-dihydro-5H-cyclopenta[b]pyridin-4-yl)carbamoyl)-4-(2-hydroxypropan-2-yl)thiophene-2-sulfonimidamide], the IC50 was 0.2 to 1 µM.
`Cc1c(C2(C)CC2)nc2c(c1NC(=O)N=S(N)(=O)c1cc(C(C)(C)O)cs1)CCC2` (stereo not drawn) [Compound 669, 4-(2-Hydroxypropan-2-yl)-N′-((3-methyl-2-(1-methylcyclopropyl)-6,7-dihydro-5H-cyclopenta[b]pyridin-4-yl)carbamoyl)thiophene-2-sulfonimidamide] was tested, and the IC50 was 5 to 30 µM.
In the case of `CC(C)(O)c1csc(S(N)(=O)=NC(=O)Nc2c3c(nc(C4CC4)c2C2CC2)CCC3)c1` (stereo not drawn) [Compound 670, N′-((2,3-dicyclopropyl-6,7-dihydro-5H-cyclopenta[b]pyridin-4-yl)carbamoyl)-4-(2-hydroxypropan-2-yl)thiophene-2-sulfonimidamide], the IC50 is reported as 0.2 to 1 µM.
Compound `CC(C)(O)c1ncc(S(N)(=O)=NC(=O)Nc2c3c(nc4c2CC4)CCC3)s1` (stereo not drawn) [Compound 672, 2-(2-Hydroxypropan-2-yl)-N′-((2,4,5,6-tetrahydro-1H-cyclobuta[b]cyclopenta[e]pyridin-7-yl)carbamoyl)thiazole-5-sulfonimidamide] has an IC50 of 5 to 30 µM.
For `CC(C)(O)c1ccc(S(N)(=O)=NC(=O)Nc2c3c(nc4c2CCC4(C)C)CCC3)cn1` (stereo not drawn) [Compound 673, N′-((3,3-dimethyl-1,2,3,5,6,7-hexahydrodicyclopenta[b,e]pyridin-8-yl)carbamoyl)-6-(2-hydroxypropan-2-yl)pyridine-3-sulfonimidamide], the IC50 was 5 to 30 µM.
`CC(C)(O)c1cc(C#N)cc(S(N)(=O)=NC(=O)Nc2c3c(nc4c2CCC4(C)C)CCC3)c1` (stereo not drawn) [Compound 674, 3-Cyano-N′-((3,3-dimethyl-1,2,3,5,6,7-hexahydrodicyclopenta[b,e]pyridin-8-yl)carbamoyl)-5-(2-hydroxypropan-2-yl)benzenesulfonimidamide] was tested, and the IC50 was 1 to 5 µM.
With `CCc1c(C2CC2)nc2c(c1NC(=O)N=S(N)(=O)c1cnc(C(C)(C)O)s1)CCC2` (stereo not drawn) [Compound 675, N′-((2-cyclopropyl-3-ethyl-6,7-dihydro-5H-cyclopenta[b]pyridin-4-yl)carbamoyl)-2-(2-hydroxypropan-2-yl)thiazole-5-sulfonimidamide] the IC50 was 1 to 5 µM.
Work on `Cc1c(C2CC2)nc2c(c1NC(=O)N=S(N)(=O)c1ccn(C(F)F)n1)CCC2` (stereo not drawn) [Compound 676, N′-((2-cyclopropyl-3-methyl-6,7-dihydro-5H-cyclopenta[b]pyridin-4-yl)carbamoyl)-1-(difluoromethyl)-1H-pyrazole-3-sulfonimidamide] yielded an IC50 of 1 to 5 µM.
`CC(C)(O)c1ncc(S(N)(=O)=NC(=O)Nc2nc3c(c4c2CCC4)CCC3)s1` (stereo not drawn) [Compound 677, N′-((1,2,3,5,6,7-hexahydrodicyclopenta[b,d]pyridin-5-yl)carbamoyl)-2-(2-hydroxypropan-2-yl)thiazole-5-sulfonimidamide] was tested, and the IC50 was 1 to 5 µM.
`CC(C)(O)c1sc(S(N)(=O)=NC(=O)Nc2c3c(nc4c2CCC4)CCC3)cc1F` (stereo not drawn) [Compound 678, 4-Fluoro-N′-((1,2,3,5,6,7-hexahydrodicyclopenta[b,e]pyridin-8-yl)carbamoyl)-5-(2-hydroxypropan-2-yl)thiophene-2-sulfonimidamide] gave an IC50 of 1 to 5 µM.

Same assay, conditions: Homo sapiens, THP-1, Table B2; 2% fetal bovine serum; numeric bounds; read-out: hTHP-1 IC50
For `CNCc1nc(C(C)(C)O)sc1S(N)(=O)=NC(=O)Nc1c2c(nc3c1CCC3(C)C)CCC2` (stereo not drawn) [Compound 665, N-((3,3-dimethyl-1,2,3,5,6,7-hexahydrodicyclopenta[b,e]pyridin-8-yl)carbamoyl)-2-(2-hydroxypropan-2-yl)-4-((methylamino)methyl)thiazole-5-sulfonimidamide], the IC50 was > 30 µM.

Same assay, conditions: Table B2; 2% fetal bovine serum; class symbols; read-out: hTHP-1 IC50
`Cc1c(C2CC2)nc2c(c1NC(=O)N=S(N)(=O)c1cc(C(C)(C)O)cs1)CCC2C` (stereo not drawn) [Compound 656, N′-((2-cyclopropyl-3,7-dimethyl-6,7-dihydro-5H-cyclopenta[b]pyridin-4-yl)carbamoyl)-4-(2-hydroxypropan-2-yl)thiophene-2-sulfonimidamide] showed an IC50 of 1 to 5 µM.
`CC1CCc2c1nc1c(c2NC(=O)N=S(N)(=O)c2cn(C(C)C)cn2)CCC1` (stereo not drawn) [Compound 660, 1-Isopropyl-N′-((3-methyl-1,2,3,5,6,7-hexahydrodicyclopenta[b,e]pyridin-8-yl)carbamoyl)-1H-imidazole-4-sulfonimidamide] showed an IC50 of 5 to 30 µM.
Work on `CCC1CCc2c1nc1c(c2NC(=O)N=S(N)(=O)c2cnc(C(C)(C)O)s2)CCC1` (stereo not drawn) [Compound 662, N′-((3-ethyl-1,2,3,5,6,7-hexahydrodicyclopenta[b,e]pyridin-8-yl)carbamoyl)-2-(2-hydroxypropan-2-yl)thiazole-5-sulfonimidamide] yielded an IC50 of 5 to 30 µM.
`CCC1CCc2c1nc1c(c2NC(=O)N=S(N)(=O)c2cnc(C(C)(C)O)s2)CCC1` (stereo not drawn) [Compound 662e] gave an IC50 of 1 to 5 µM.
`CCC1CCc2c1nc1c(c2NC(=O)N=S(N)(=O)c2ccn(C(F)F)n2)CCC1` (stereo not drawn) [Compound 668, 1-(Difluoromethyl)-N′-((3-ethyl-1,2,3,5,6,7-hexahydrodicyclopenta[b,e]pyridin-8-yl)carbamoyl)-1H-pyrazole-3-sulfonimidamide] gave an IC50 of 5 to 30 µM.
In the case of `CCC1CCc2c1nc1c(c2NC(=O)N=S(N)(=O)c2sc(C(C)(C)O)cc2F)CCC1` (stereo not drawn) [Compound 671, N′-((3-ethyl-1,2,3,5,6,7-hexahydrodicyclopenta[b,e]pyridin-8-yl)carbamoyl)-3-fluoro-5-(2-hydroxypropan-2-yl)thiophene-2-sulfonimidamide], the IC50 is reported as 1 to 5 µM.
